Several values for one entry are separate records, joined by “and”; a condition that tells them apart may be missing. Equal entries are not always repeated.
Key:
[1] = test system: SARS-CoV-2 VOC-202012/01 strain; type: cell-based
[2] = cited from earlier work

Row | SMILES | 100% CPE inhibitory concentration (CPEIC100) [1] | time to maximal effectiveness on the coronavirus ([1]; after starting treatment) [h] | plasma half-life [2] [h] | time of peak plasma concentrations [2] [h]
1 | O=c1nc[nH]c2c1ncn2[C@H]1CC[C@@H](CO)O1 [DDI, 9-[(2R,5S)-5-(hydroxymethyl)oxolan-2-yl]-3H-purin-6-one] | 8.95 µM and 8.95 ± 0.52 µM | 12 to 24 | ≤ 2 | 0.5 to 1.5
2 | N#C[C@@]1(c2ccc3c(N)ncnn23)O[C@H](CO)[C@@H](O)[C@H]1O [GS-441524] | 17.40 µM and 17.40 ± 1.83 µM | – | – | –
3 | CCC(CC)COC(=O)[C@H](C)N[P@](=O)(OC[C@H]1O[C@@](C#N)(c2ccc3c(N)ncnn23)[C@H](O)[C@@H]1O)Oc1ccccc1 [remdesivir] | 25.17 µM and 25.17 ± 2.51 µM | – | – | –
